For this experiment, the target named is Human Factor D (Homo sapiens (Human), UniProt P00746). Description: Human Factor D Assay. The class given is biochemical. The protocol:
Human Factor D (purified from human serum, Complement Technology, Inc.) at 80 nM final concentration was incubated with test compound at various concentrations for 5 minutes at room temperature in 50 mM Tris, 1M NaCl, pH 7.5. A synthetic substrate Z-L-Lys-SBzl and DTNB (Ellman's reagent) are added to final concentrations of 100 μM each. […] IC50 values are calculated by nonlinear regression of complement Factor D reaction rates as a function of test compound concentration.

[1] abbreviates: Human Factor D, Table 3, read-out: IC50.
The mark [2] stands for this setting: Human Factor D 80 nM, substrate Z-L-Lys-SBzl, read-out: IC50.
Where [3] appears, read: Table 3, Human Factor D 80 nM, substrate Z-L-Lys-SBzl, read-out: IC50 (Stars).
Setting [4] is: Human Factor D assay of Example 8, Table 2, read-out: IC50.

Where two headings read alike, the source gives them in different places.

Sequence of Human Factor D (P00746 26-253): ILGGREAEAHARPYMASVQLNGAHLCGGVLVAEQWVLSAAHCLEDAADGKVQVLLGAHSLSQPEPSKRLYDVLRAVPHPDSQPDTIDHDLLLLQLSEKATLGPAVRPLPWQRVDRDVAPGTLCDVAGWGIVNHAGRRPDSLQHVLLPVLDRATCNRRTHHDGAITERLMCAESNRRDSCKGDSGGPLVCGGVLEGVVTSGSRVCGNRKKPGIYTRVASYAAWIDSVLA

For the compound `COC(=O)c1ccc(Br)nc1NC(=O)[C@@H]1C[C@@H](F)CN1C(=O)Cn1nc(C(C)=O)c2cc(-c3cnc(C)nc3)ccc21` [Compound 607, Methyl 2-((2S,4R)-1-(2-(3-Acetyl-5-(2-methylpyrimidin-5-yl)-1H-indazol-1-yl)acetyl)-4-fluoropyrrolidine-2-carboxamido)-6-bromonicotinate], the IC50 under setting [1] is less than 1000 nM. Consider `COc1ncc(-c2ccc3c(c2)c(C(N)=O)nn3CC(=O)N2C[C@H](F)C[C@H]2C(=O)Nc2cccc(Cl)n2)cn1` [Compound 30, 1-(2-((2S,4R)-2-(6-chloropyridin-2-ylcarbamoyl)-4-fluoropyrrolidin-1-yl)-2-oxoethyl)-5-(2-methoxypyrimidin-5-yl)-1H-indazole-3-carboxamide], for which the IC50 under setting [2] was less than 1000 nM.

Take `Cc1cccc(NC(=O)[C@@H]2[C@H]3CC[C@H](C3)N2C(=O)Cn2cc(C(N)=O)c3cc(-c4cccc(C#N)c4)ccc32)n1` [Compound 497, 5-(3-Cyanophenyl)-1-(2-((1R,3S,4S)-3-(6-methylpyridin-2-ylcarbamoyl)-2-azabicyclo[2.2.1]heptan-2-yl)-2-oxoethyl)-1H-indole-3-carboxamide]: the IC50 under setting [3] is more than 10000 nM. Consider `CC(=O)c1nn(CC(=O)N2CC[C@H]2C(=O)Nc2cccc(C)n2)c2ccc(-c3cccnc3)cc12` [Compound 548, (S)-1-(2-(3-Acetyl-5-(pyridin-3-yl)-1H-indazol-1-yl)acetyl)-N-(6-methylpyridin-2-yl)azetidine-2-carboxamide], for which the IC50 under setting [1] was more than 10000 nM. Still for that read-out and setting: then `CC(=O)c1nn(CC(=O)N2CCC[C@H]2C(=O)Nc2cccc(C)n2)c2ccc(-c3cnc4ncccn34)cc12` [Compound 708, (S)-1-(2-(3-Acetyl-5-(imidazo[1,2-a]pyrimidin-3-yl)-1H-indazol-1-yl)acetyl)-N-(6-methylpyridin-2-yl)pyrrolidine-2-carboxamide], with less than 1000 nM. With `CC(=O)c1nn(CC(=O)N2C[C@H](F)C[C@H]2C(=O)NCc2cccc(Cl)c2F)c2ccc(-c3cnc(C)nc3)cc12` [Compound 226, (2S,4R)-1-(2-(3-acetyl-5-(2-methylpyrimidin-5-yl)-1H-indazol-1-yl)acetyl)-N-(3-chloro-2-fluorobenzyl)-4-fluoropyrrolidine-2-carboxamide], the IC50 under setting [4] was less than 1000 nM. As to `CC(=O)c1nn(CC(=O)N2C[C@H](F)C[C@H]2C(=O)NC[C@H]2CCN(C)C2)c2ccc(-c3cnc(C)nc3)cc12` [Compound 569, (2S,4R)-1-(2-(3-acetyl-5-(2-methylpyrimidin-5-yl)-1H-indazol-1-yl)acetyl)-4-fluoro-N—(((R)-1-methylpyrrolidin-3-yl)methyl)pyrrolidine-2-carboxamide], under setting [1], the IC50 was more than 10000 nM. As to `CC(=O)c1nn(CC(=O)N2C[C@H](F)C[C@H]2C(=O)Nc2cccc(Br)n2)c2ccc(-c3cnc(NC4CC4)nc3)cc12` [Compound 367, (2S,4R)-1-(2-(3-Acetyl-5-(2-(cyclopropylamino)pyrimidin-5-yl)-1H-indazol-1-yl)acetyl)-N-(6-bromopyridin-2-yl)-4-fluoropyrrolidine-2-carboxamide], the IC50 under setting [3] is less than 1000 nM.

Regarding `CC(=O)c1cn(CC(=O)N2C[C@H](F)C[C@H]2C(=O)Nc2cccc(Cl)n2)c2ccc(-c3cnc(C)nc3)cc12` [Compound 137, (2S,4R)-1-(2-(3-acetyl-5-(2-methylpyrimidin-5-yl)-1H-indol-1-yl)acetyl)-N-(6-chloropyridin-2-yl)-4-fluoropyrrolidine-2-carboxamide], the IC50 under setting [2] was less than 1000 nM. Compound `CC(=O)c1cn(CC(=O)N2C[C@H](F)C[C@H]2C(=O)NC2CCCN(c3cnn(C)c3)C2)c2ccc(-c3ccnnc3)cc12` (stereo partly drawn) [Compound 140, (2S,4R)-1-(2-(3-acetyl-5-(pyridazin-4-yl)-1H-indol-1-yl)acetyl)-4-fluoro-N-(1-(1-methyl-1H-pyrazol-4-yl)piperidin-3-yl)pyrrolidine-2-carboxamide] yielded an IC50 of 1000 to 10000 nM. For `CC(=O)c1nn(CC(=O)N2CC[C@H]2C(=O)Nc2cccc(C)n2)c2ccc(-c3ccc(F)nc3)cc12` [Compound 549, (S)-1-(2-(3-Acetyl-5-(6-fluoropyridin-3-yl)-1H-indazol-1-yl)acetyl)-N-(6-methylpyridin-2-yl)azetidine-2-carboxamide], the IC50 under setting [1] is more than 10000 nM.

For the compound `CC(=O)c1nn(CC(=O)N2C[C@H](F)[C@@H](O)[C@H]2C(=O)Nc2cccc(Br)n2)c2ccc(-c3cnc(C)nc3)cc12` [Compound 346, (2S,3S,4S)-1-(2-(3-Acetyl-5-(2-methylpyrimidin-5-yl)-1H-indazol-1-yl)acetyl)-N-(6-bromopyridin-2-yl)-4-fluoro-3-hydroxypyrrolidine-2-carboxamide], the IC50 under setting [3] is less than 1000 nM. As for `Cc1cccc(NC(=O)[C@@H]2[C@H]3CC[C@H](C3)N2C(=O)Cn2cc(C(N)=O)c3cc(-c4cnc(C)nc4)ccc32)n1` [Compound 473, 1-(2-((1R,3S,4S)-3-(6-Methylpyridin-2-ylcarbamoyl)-2-azabicyclo[2.2.1]heptan-2-yl)-2-oxoethyl)-5-(2-methylpyrimidin-5-yl)-1H-indole-3-carboxamide], the IC50 under setting [3] was more than 10000 nM.

Turning to `Cc1cc2ncc(-c3cc4c(C(N)=O)nn(CC(=O)N5C[C@H](F)C[C@H]5C(=O)Nc5cccc(OC(F)(F)F)c5F)c4cn3)cn2n1` [Compound 283, 1-(2-((2S,4R)-4-fluoro-2-(2-fluoro-3-(trifluoromethoxy)phenylcarbamoyl)pyrrolidin-1-yl)-2-oxoethyl)-5-(2-methylpyrazolo[1,5-a]pyrimidin-6-yl)-1H-pyrazolo[3,4-c]pyridine-3-carboxamide], the IC50 under setting [4] was less than 1000 nM.

`CCN1Cc2ccc(NC(=O)[C@@H]3C[C@@H](F)CN3C(=O)Cn3nc(C(N)=O)c4cc(-c5ccnnc5)ccc43)cc2C1=O` [Compound 48, 1-(2-((2S,4R)-2-(2-ethyl-3-oxoisoindolin-5-ylcarbamoyl)-4-fluoropyrrolidin-1-yl)-2-oxoethyl)-5-(pyridazin-4-yl)-1H-indazole-3-carboxamide]: the IC50 under setting [2] is more than 10000 nM. `CC(=O)c1nn(CC(=O)N2C[C@@H](C)C[C@H]2C(=O)Nc2nc(Br)ccc2C)c2ccc(-c3cnc(C)nc3)cc12` [Compound 643, (2S,4S)-1-(2-(3-Acetyl-5-(2-methylpyrimidin-5-yl)-1H-indazol-1-yl)acetyl)-N-(6-bromo-3-methylpyridin-2-yl)-4-methylpyrrolidine-2-carboxamide]: the IC50 under setting [1] is less than 1000 nM. As to `CC(=O)c1cn(CC(=O)N2C[C@H](F)C[C@H]2C(=O)Nc2ccccc2N2CCOC2=O)c2ccc(-c3ccnnc3)cc12` [Compound 64, (2S,4R)-1-(2-(3-acetyl-5-(pyridazin-4-yl)-1H-indol-1-yl)acetyl)-4-fluoro-N-(2-(2-oxooxazolidin-3-yl)phenyl) pyrrolidine-2-carboxamide], the IC50 under setting [2] was more than 10000 nM. Take `Cc1ncc(-c2ccc3c(c2)c(CC(N)=O)nn3CC(=O)N2C[C@H](F)C[C@H]2C(=O)Nc2cccc(Br)n2)cn1` [Compound 340, (2S,4R)-1-(2-(3-(2-amino-2-oxoethyl)-5-(2-methylpyrimidin-5-yl)-1H-indazol-1-yl)acetyl)-N-(6-bromopyridin-2-yl)-4-fluoropyrrolidine-2-carboxamide]: under setting [3], the IC50 lay within 1000 to 10000 nM. Consider `NC(=O)c1nn(CC(=O)N2C[C@H](F)C[C@H]2C(=O)Nc2cccc(-c3ccccc3Cl)c2F)c2ccc(-c3cncnc3)cc12` [Compound 2], for which the IC50 under setting [2] is less than 1000 nM.

Turning to `NC(=O)c1nn(CC(=O)N2C[C@H](F)C[C@H]2C(=O)Nc2cccc(Br)n2)cc1-c1cnn(-c2ncc(F)cn2)c1` [Compound 729, 1-(2-((2S,4R)-2-((6-Bromopyridin-2-yl)carbamoyl)-4-fluoropyrrolidin-1-yl)-2-oxoethyl)-1′-(5-fluoropyrimidin-2-yl)-1H,1′H-[4,4′-bipyrazole]-3-carboxamide], the IC50 under setting [1] is more than 10000 nM. Regarding `CC(=O)c1nn(CC(=O)N2C[C@H](F)C[C@H]2C(=O)Nc2nc(Br)ccc2C)c2ccc(-c3ccnc(C)n3)cc12` [Compound 468, (2S,4R)-1-(2-(3-Acetyl-5-(2-methylpyrimidin-4-yl)-1H-indazol-1-yl)acetyl)-N-(6-bromo-3-methylpyridin-2-yl)-4-fluoropyrrolidine-2-carboxamide], the IC50 under setting [3] is less than 1000 nM. As to `CC(=O)c1cn(CC(=O)N2C[C@H](F)C[C@H]2C(=O)Nc2cccc(OC(F)(F)F)c2F)c2ccc(-c3cnc4cc(C)nn4c3)cc12` [Compound 276, (2S,4R)-1-(2-(3-acetyl-5-(2-methylpyrazolo[1,5-a]pyrimidin-6-yl)-1H-indol-1-yl)acetyl)-4-fluoro-N-(2-fluoro-3-(trifluoromethoxy)phenyl)pyrrolidine-2-carboxamide], the IC50 under setting [4] is less than 1000 nM. Consider `CC(=O)c1nn(CC(=O)N2C[C@H](F)C[C@H]2C(=O)Nc2cccc(Br)n2)c2ccc(-c3cnc(F)nc3)cc12` [Compound 583, (2S,4R)-1-(2-(3-Acetyl-5-(2-fluoropyrimidin-5-yl)-1H-indazol-1-yl)acetyl)-N-(6-bromopyridin-2-yl)-4-fluoropyrrolidine-2-carboxamide], for which the IC50 under setting [1] is less than 1000 nM. Still for that read-out and setting: then `CC(=O)c1nn(CC(=O)N2[C@@H]3C[C@@H]3C[C@H]2C(=O)NC/C(F)=C(\C)c2ccccc2)c2ccc(-c3cnc(C)nc3)cc12` [Compound 557, (1R,3S,5R)-2-(2-(3-Acetyl-5-(2-methylpyrimidin-5-yl)-1H-indazol-1-yl)acetyl)-N—((Z)-2-fluoro-3-phenylbut-2-en-1-yl)-2-azabicyclo[3.1.0]hexane-3-carboxamide], with less than 1000 nM. In the case of `CC(=O)c1cn(CC(=O)N2C[C@H](F)C[C@H]2C(=O)Nc2cccc(-c3ccncc3Cl)c2F)c2ccc(-c3cnc(C)nc3)cc12` [Compound 206, (2S,4R)-1-(2-(3-acetyl-5-(2-methylpyrimidin-5-yl)-1H-indol-1-yl)acetyl)-N-(3-(3-chloropyridin-4-yl)-2-fluorophenyl)-4-fluoropyrrolidine-2-carboxamide], under setting [4], the IC50 is less than 1000 nM.

By IC50 is commonly meant the concentration needed to halve the response being measured.

These data come from patent US10287301B2 (Achillion Pharmaceuticals, Inc., priority 2015, dated 2019).
